Source: patent publication US6207438A, “Method for preparing a product in particular for preventing and curing skin diseases, and resulting product” (priority 1998, dated 2001)
Several values for one entry are separate records, joined by “and”; a condition that tells them apart may be missing. Equal values may be shown once.

Assays:
5α reductase (5αR) = biological target: T1, 5α reductase (5αR) (Canis lupus familiaris, UniProt A0A8I3NQ64); test: Inhibitor effect on 5α reductase of dog prostate extract (radio-chemical method); format: biochemical; settings: 0.1 mM
T1 construct: raw extract of dog prostate; from tissue; host or cells: dog prostate, raw extract
T1 sequence (A0A8I3NQ64 1-254): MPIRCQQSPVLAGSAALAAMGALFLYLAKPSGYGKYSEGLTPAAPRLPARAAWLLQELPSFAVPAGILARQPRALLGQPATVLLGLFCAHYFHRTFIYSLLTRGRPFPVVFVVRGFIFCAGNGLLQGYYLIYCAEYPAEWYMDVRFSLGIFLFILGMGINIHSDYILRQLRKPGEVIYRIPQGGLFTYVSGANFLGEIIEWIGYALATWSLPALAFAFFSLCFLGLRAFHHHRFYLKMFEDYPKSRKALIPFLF
Text: It is known that enzymes of the type 5α reductase (5αR) transform testosterone into 17β-hydrosy-5α-androstan-3-one or […]. This reaction is crucial in the action of androgens. These enzymes are present in the keratinocytes of the epidermis, in the fibroblasts of the dermis, and in the sebaccous glands in particular.
Solutions of the product were created at five times the final concentration used in the reaction, in a citrate-phosphate buffer at 0.1 M and pH=5.6 (buffer used in the 5αR reaction). The 5αR reference inhibitor was finasteride (Chibro-Prosacar®, in 5 mg tablets), and tested at the concentration of 500 μg/ml after dilution in the citrate-phosphate buffer at 0.1 M.
The enzymatic extract used was a raw extract of dog prostate prepared in a tris buffer of 0.1 M/sucrose 20%, pH=7.5. The sample was calibrated in such a way as to transform approximately 0.1 pmole of testosterone with 50 μl of extract (being an arbitrary unit of the enzyme).
The mixtures were incubated for 4 hours at 37° C., then the testosterone and the derivatives formed were extracted by 500 μl of dichloromethane. The fraction of dichloromethane was drawn off, dried under a nitrogen flow, and chromatographed on silica in a dichloromethane/ethyl acetate/methanol system (proportions 85:15:3). The plates obtained were autoradiographed on Kodak MP® films.
The evaluation of the quantity of testosterone transformed was carried out after sectioning the products formed and counting them in liquid scintillation.

Staphylococcus aureus = test: microbe, parasite or virus in culture; format: cell-based; settings: 48 h, read-out: Factor of increase of the quantity of S. aureus
Protocol: (§1) Second In Vitro Test Establishing an Effect on Pathogenic and Non-pathogenic Flora
(§2) The effects of an oligosaccharide of a degree of polymerisation close to 10 according to the said first method, and of a chelate of this oligosaccharide+Zn, were evaluated on the non-pathogenic strain Micrococcus kristinae, the pathogenic strain Staphylococcus aureus, and the pathogenic strain Propionibacterium acnes. This latter strain is particularly involved in the irritations occurring in the course of cutaneous acne infections.
(§3) The bacteria are cultured in a saline medium (5.6 g/l of NaCl 2.812 g/l of KH2 PO4), containing pancreatic peptone (5.625 g/l) and extracts of heart/brain (9.843 g/l). The strains M. kristinae and S. aureus are cultured in an aerobic medium, and the strain P. acnes is cultured in an anaerobic medium, either in the presence of 5 g/l of glucose (traditional carbonaceous source) or in the presence of a product according to the invention (oligosaccharide of degree of polymerisation close to 10 alone, or this oligosaccharide forming a chelate with zinc), or in the presence of the medium alone (control cultures). The quantity of bacteria being cultured is evaluated after 48 hours of culturing by turbidimetry at 750 nm.

Propionibacterium acnes = test: microbe, parasite or virus in culture; format: cell-based; settings: Cutibacterium acnes, 48 h, read-out: Factor of increase of the quantity of P. acnes
Protocol: as §1, §2, §3

Micrococcus kristinae = test: microbe, parasite or virus in culture; format: cell-based; settings: Rothia kristinae, 48 h, read-out: Factor of increase of the quantity of M. kristinae
Protocol: as §1, §2, §3

Mean (cpm total) (5α reductase (5αR)) | Mean e - T (5α reductase (5αR)) | inhibition at 100 µM (5α reductase (5αR)) | cpm ASD (5α reductase (5αR); listed as F) | cpm DHT (5α reductase (5αR); listed as F) | cpm total (5α reductase (5αR); listed as F) | activity at 100 µM (5α reductase (5αR); pH 5.6, enzyme control = 100) | Structure (SMILES) | fold induction at 5000 µg/mL (Staphylococcus aureus) | fold induction at 5000 µg/mL (Propionibacterium acnes) | fold induction at 5000 µg/mL (Micrococcus kristinae)
1080 cpm | 647 cpm | 85% | 880 cpm and 748 cpm and 647 cpm | 343 cpm and 262 cpm and 359 cpm | 1223 cpm and 1010 cpm and 1006 cpm | 15% | CC(C)(C)NC(=O)[C@H]1CC[C@H]2[C@@H]3CC[C@H]4NC(=O)C=C[C@]4(C)[C@H]3CC[C@]12C [finasteride] | – | – | –
– | – | – | – | – | – | – | O=C[C@H](O)[C@@H](O)[C@H](O)[C@H](O)CO [glucose] | 1.6 | 5.2 | 2.2
